# Experimental data reported in patent US20060178398A1, “Therapeutic compounds for treating dyslipidemic conditions” (priority 2004, published 2006).
# Tested on: Caco-2 cells
# Test: Cholesterol efflux from cultured human cells (Caco-2, 3H-cholesterol, apoA-I)
# Type: cell-based
# Conditions: 24 h, mean of quadruplicate incubations
# Protocol: To assess the relevant biological activity of the LXR agonists, certain compounds were tested for their ability to increase cholesterol efflux from cultured human cells, as described by Sparrow et al., JBC, 277, 10021-10027, Mar. 22, 2002. Caco-2 cells, which are of human origin, were obtained from ATCC and grown in Opti-MEM (Gibco #51985-034) containing 10% FCS, non-essential amino acids (Gibco #11140-050), and vitamins (Gibco # 11120-052). Caco-2 cells were plated at 100,000 cells/well in 48-well plates. After four days the cells had reached confluence, and were then labeled with ^3H-cholesterol by incubation for 24 hours in fresh growth media containing ^3H-cholesterol (10 μCi/ml). Following labeling with ^3H-cholesterol, cells were washed and incubated an additional 24 hours in serum-free media containing 1 mg/ml BSA, to allow for equilibration of ^3H-cholesterol with intracellular cholesterol. Cholesterol efflux was initiated by adding 10 μg/ml apoA-I, with or without compound, in serum-free medium. Compounds were added to cell culture medium from DMSO solutions, and control cells received an equivalent amount of DMSO, never exceeding 0.1%. After 24 hours, media were harvested and cells dissolved in 0.1 M NaOH. Media were briefly centrifuged to remove non-adherent cells, and then aliquots of both the supernatants and the dissolved cells were subjected to liquid scintillation spectrometry to determine radioactivity. Cholesterol efflux is expressed as a percentage, calculated as (^3H-cholesterol in medium/(^3H-cholesterol in medium +^3H-cholesterol in cells))×100.
smiles,measurement,setting,value
"CCCc1c(OCCCN(C)c2cnc(CC(=O)O)cn2)ccc2c(C(F)(F)F)noc12 [Example 25, {5-[methyl(3-{[7-propyl-3-(trifluoromethyl)-1,2-benzisoxazol-6-yl]oxy}propyl)amino]pyrazin-2-yl}acetic acid]",% cholesterol efflux,compound concentration 10 nM,3.4%
same,% cholesterol efflux,compound concentration 30 nM,4.4%
same,% cholesterol efflux,compound concentration 100 nM,4.3%
same,% cholesterol efflux,compound concentration 300 nM,6.6%
same,% cholesterol efflux,compound concentration 1000 nM,7.4%
same,% cholesterol efflux,compound concentration 3000 nM,7.7%
"CCCc1c(OCCCn2ccc3cc(CC(=O)O)c(Cl)cc32)ccc2c(C(F)(F)F)noc12 [Example 40, [6-chloro-1-(3-{[7-propyl-3-(trifluoromethyl)-1,2-benzisoxazol-6-yl]oxy}propyl)-1H-indol-5-yl]acetic acid]",% cholesterol efflux,compound concentration 10 nM,4.9%
same,% cholesterol efflux,compound concentration 30 nM,5.2%
same,% cholesterol efflux,compound concentration 100 nM,5.9%
same,% cholesterol efflux,compound concentration 300 nM,6.3%
same,% cholesterol efflux,compound concentration 1000 nM,6.5%
same,% cholesterol efflux,compound concentration 3000 nM,7.7%
